Measured values: ChEMBL document CHEMBL1201862, “PubChem BioAssay data set” (2004)
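Protocol summary: plate cells (96-well), add compound at 5 concentrations, incubate 48 h, interpolate endpoints linearly. At the GI50, growth is halved.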 Calls of active or inactive are those of the source. Rule as the data show it: active = GI50 up to about 1.1 µM and inactive = higher.

Tests used:
Test in all cases: growth of human tumour cells (NCI), 48 h
HOP-92 = tested on: HOP-92
MCF7 = tested on: MCF7
ACHN = tested on: ACHN
SK-OV-3 = tested on: SK-OV-3
SF-295 = tested on: SF-295
SK-MEL-2 = tested on: SK-MEL-2
COLO 205 = tested on: COLO 205
HCC 2998 = tested on: HCC 2998
K562 = tested on: K562
IGROV-1 = tested on: IGROV-1
Hs-578T = tested on: Hs-578T
SN12C = tested on: SN12C
RPMI-8226 = tested on: RPMI-8226
MDA-MB-435 = tested on: MDA-MB-435
CCRF-CEM = tested on: CCRF-CEM
SW-620 = tested on: SW-620
NCI-H226 = tested on: NCI-H226
A498 = tested on: A498
EKVX = tested on: EKVX
MOLT-4 = tested on: MOLT-4

SMILES | GI50 (HOP-92) | GI50 (MCF7) | GI50 (ACHN) | GI50 (SK-OV-3) | GI50 (SF-295) | GI50 (SK-MEL-2) | GI50 (COLO 205) | GI50 (HCC 2998) | GI50 (K562) | GI50 (IGROV-1) | GI50 (Hs-578T) | GI50 (SN12C) | GI50 (RPMI-8226) | GI50 (MDA-MB-435) | GI50 (CCRF-CEM) | GI50 (SW-620) | GI50 (NCI-H226) | GI50 (A498) | GI50 (EKVX) | GI50 (MOLT-4)
N=C(N)C(/N=N\c1ccccc1)C(=N)N (stereo not given) | 20.3 µM (inactive) | 25.6 µM (inactive) | 64.9 µM (inactive) | 64.6 µM (inactive) | 32.9 µM (inactive) | 23.4 µM (inactive) | 29.8 µM (inactive) | 16.5 µM (inactive) | 23.7 µM (inactive) | 33.2 µM (inactive) | 48.9 µM (inactive) | 36.6 µM (inactive) | 27.9 µM (inactive) | 16.9 µM (inactive) | 13.5 µM (inactive) | 34.4 µM (inactive) | 15 µM (inactive) | 54.5 µM (inactive) | 38.8 µM (inactive) | 30.5 µM (inactive)
C[C@@]12CCC3C1C=C1C(=O)c4cc(O)ccc4C(=O)[C@]1(O2)[C@@]3(C)C=O | 10.3 µM (inactive) | 3.52 µM (inactive) | 7.11 µM (inactive) | 10.2 µM (inactive) | 11.5 µM (inactive) | 8.91 µM (inactive) | 9.31 µM (inactive) | 2.97 µM (inactive) | 2.3 µM (inactive) | 5.55 µM (inactive) | 16.2 µM (inactive) | 2.02 µM (inactive) | 2.2 µM (inactive) | 3.15 µM (inactive) | 0.977 µM (active) | 3.9 µM (inactive) | 12.6 µM (inactive) | 1.48 µM (inactive) | 9.71 µM (inactive) | 2.3 µM (inactive)
C=C(C)C1CC2=C(O1)C(=O)c1cccc(O)c1C2=O (stereo not given) | 0.604 µM (active) | 0.586 µM (active) | 1.72 µM (inactive) | 1.51 µM (inactive) | 1.36 µM (inactive) | 1.17 µM (inactive) | 1.75 µM (inactive) | 1.99 µM (inactive) | 0.0935 µM (active) | 0.256 µM (active) | 1.16 µM (inactive) | 1.21 µM (inactive) | 0.265 µM (active) | 0.129 µM (active) | 0.209 µM (active) | 0.929 µM (active) | 1.78 µM (inactive) | 5.46 µM (inactive) | 1.17 µM (inactive) | 0.2 µM (active)
